For 15 molecules, ring closure, conversion by HPLC results are on record in article PMC11191687.

Bounds are passed on as bounds.

This data set can be described thus: lactamisation (head-to-tail or side-chain-to-tail) of unprotected peptide acyl azide (from hydrazide, 20 equiv NaNO2, pH 3, -15 C, then NaHCO3 to pH ~7), MeCN cosolvent. Conditions: aq phosphate buffer (6 M GdmCl) diluted with 2 vol 50% MeCN/water, 2.2 mM, 2 steps.

`C[C@@H]1NC(=O)CN(C)C(=O)[C@H](C)NC(=O)[C@H](C)NC(=O)CN(C)C(=O)[C@H](C)NC(=O)[C@H](C)NC1=O` [H-Ala-Sar-Ala-Ala-Sar-Ala-Ala-N3]: for the setting “from C[C@H](N)C(=O)N(C)CC(=O)N[C@@H](C)C(=O)N[C@@H](C)C(=O)N(C)CC(=O)N[C@@H](C)C(=O)N[C@@H](C)C(=O)N=[N+]=[N-], 21-membered ring, 0.35 h”, the ring closure, conversion by HPLC is 96%.

Consider `CC(=O)N[C@@H](Cc1ccccc1)C(=O)N[C@H]1CCCNC(=O)[C@H](CCCNC(=N)N)NC(=O)[C@H](Cc2c[nH]c3ccccc23)NC(=O)[C@@H](Cc2ccc(O)cc2)NC(=O)[C@@H]2CCCN2C1=O` [Ac-Phe-Orn(cyclises via side chain)-Pro-D-Tyr-Trp-Arg-N3], for which the ring closure, conversion by HPLC (from CC(=O)N[C@@H](Cc1ccccc1)C(=O)N[C@@H](CCCN)C(=O)N1CCC[C@H]1C(=O)N[C@H](Cc1ccc(O)cc1)C(=O)N[C@@H](Cc1c[nH]c2ccccc12)C(=O)N[C@@H](CCCNC(=N)N)C(=O)N=[N+]=[N-], 18-membered ring, 0.35 h) turned out to be 95%.

On to `C[C@@H]1NC(=O)[C@H](C)NC(=O)[C@@H]2CCCN2C(=O)[C@H](C)NC(=O)[C@H](C)NC(=O)[C@@H]2CCCN2C(=O)[C@H](C)NC1=O` [H-Ala-Pro-Ala-Ala-Pro-Ala-Ala-N3], for which the ring closure, conversion by HPLC (from C[C@H](N)C(=O)N1CCC[C@H]1C(=O)N[C@@H](C)C(=O)N[C@@H](C)C(=O)N1CCC[C@H]1C(=O)N[C@@H](C)C(=O)N[C@@H](C)C(=O)N=[N+]=[N-], 21-membered ring, 0.68 h) is 80%.

`CC(C)C[C@H]1C(=O)N[C@@H](C)C(=O)N[C@@H](C)C(=O)N(C)[C@@H](CC(C)C)C(=O)N[C@@H](C)C(=O)NCC(=O)N[C@@H](C)C(=O)N1C` [H-Ala-N-Me-Leu-Ala-Ala-N-Me-Leu-Ala-Gly-N3]: the ring closure, conversion by HPLC (from CC(C)C[C@@H](C(=O)N[C@@H](C)C(=O)N[C@@H](C)C(=O)N(C)[C@@H](CC(C)C)C(=O)N[C@@H](C)C(=O)NCC(=O)N=[N+]=[N-])N(C)C(=O)[C@H](C)N, 21-membered ring, 0.35 h) was determined as 90%.

Turning to `C=CC[C@@H]1NC(=O)[C@H](CC(C)C)NC(=O)[C@H](CC(C)C)N(C)C(=O)[C@H](C)NC(=O)[C@H](Cc2ccc(O)c([N+](=O)[O-])c2)NC(=O)[C@H](CC(C)C)N(C)C(=O)[C@H](Cc2cn(C)c3ccccc23)NC1=O` [H-Leu-allylGly-Trp(1-Me)-N-Me-Leu-Tyr(3-NO2)-Ala-N-Me-Leu-N3], the ring closure, conversion by HPLC (from C=CC[C@H](NC(=O)[C@@H](N)CC(C)C)C(=O)N[C@@H](Cc1cn(C)c2ccccc12)C(=O)N(C)[C@@H](CC(C)C)C(=O)N[C@@H](Cc1ccc(O)c([N+](=O)[O-])c1)C(=O)N[C@@H](C)C(=O)N(C)[C@@H](CC(C)C)C(=O)N=[N+]=[N-], 21-membered ring, 1.35 h) amounted to 20%.

As to `CC(C)C[C@H]1C(=O)N[C@@H](C)C(=O)N[C@@H](C)C(=O)N[C@@H](C)C(=O)N(C)[C@@H](CC(C)C)C(=O)N[C@@H](C)C(=O)N[C@@H](C)C(=O)N1C` [H-Ala-N-Me-Leu-Ala-Ala-N-Me-Leu-Ala-Ala-N3], the ring closure, conversion by HPLC (from CC(C)C[C@@H](C(=O)N[C@@H](C)C(=O)N[C@@H](C)C(=O)N(C)[C@@H](CC(C)C)C(=O)N[C@@H](C)C(=O)N[C@@H](C)C(=O)N=[N+]=[N-])N(C)C(=O)[C@H](C)N, 21-membered ring, 0.35 h) was 89%.

`CSCC[C@@H]1NC(=O)[C@H](C(C)C)NC(=O)[C@H](CC(C)C)NC(=O)CNC(=O)[C@@H]2CCCN2C(=O)[C@H](C(C)C)NC(=O)CNC(=O)[C@H](Cc2ccccc2)NC1=O` [H-Phe-Gly-Val-Pro-Gly-Leu-Val-Met-N3]: the ring closure, conversion by HPLC (from CSCC[C@H](NC(=O)[C@@H](NC(=O)[C@H](CC(C)C)NC(=O)CNC(=O)[C@@H]1CCCN1C(=O)[C@@H](NC(=O)CNC(=O)[C@@H](N)Cc1ccccc1)C(C)C)C(C)C)C(=O)N=[N+]=[N-], 24-membered ring, 0.35 h) worked out at 38%.

With `C=CC[C@@H]1NC(=O)[C@H](CC(C)C)NC(=O)[C@H](CC(C)C)N(C)C(=O)[C@H](C)NC(=O)[C@H](Cc2ccc(O)c([N+](=O)[O-])c2)NC(=O)[C@H](CC(C)C)N(C)C(=O)[C@H](Cc2cn(C)c3ccccc23)NC1=O` [H-allylGly-Trp(1-Me)-N-Me-Leu-Tyr(3-NO2)-Ala-N-Me-Leu-Leu-N3], the ring closure, conversion by HPLC (from C=CC[C@H](N)C(=O)N[C@@H](Cc1cn(C)c2ccccc12)C(=O)N(C)[C@@H](CC(C)C)C(=O)N[C@@H](Cc1ccc(O)c([N+](=O)[O-])c1)C(=O)N[C@@H](C)C(=O)N(C)[C@@H](CC(C)C)C(=O)N[C@@H](CC(C)C)C(=O)N=[N+]=[N-], 21-membered ring, 0.35 h) stood at 59%.

On to `CC(C)C[C@@H]1NC(=O)[C@H](CCCN)NC(=O)[C@H](C(C)C)NC(=O)[C@H](Cc2ccc(O)cc2)NC(=O)[C@H](CCC(N)=O)NC(=O)[C@H](CC(N)=O)NC(=O)[C@@H](Cc2ccccc2)NC(=O)[C@H](Cc2ccccc2)NC(=O)[C@@H]2CCCN2C(=O)[C@@H](Cc2ccccc2)NC1=O` [H-D-Phe-Pro-Phe-D-Phe-Asn-Gln-Tyr-Val-Orn-Leu-N3], for which the ring closure, conversion by HPLC (from CC(C)C[C@H](NC(=O)[C@H](CCCN)NC(=O)[C@@H](NC(=O)[C@H](Cc1ccc(O)cc1)NC(=O)[C@H](CCC(N)=O)NC(=O)[C@H](CC(N)=O)NC(=O)[C@@H](Cc1ccccc1)NC(=O)[C@H](Cc1ccccc1)NC(=O)[C@@H]1CCCN1C(=O)[C@H](N)Cc1ccccc1)C(C)C)C(=O)N=[N+]=[N-], 30-membered ring, 0.33 h) amounted to 95%.

Regarding `C=CC[C@@H]1NC(=O)[C@H](CC(C)C)NC(=O)[C@H](CC(C)C)NC(=O)[C@H](C)NC(=O)[C@H](Cc2ccc(O)c([N+](=O)[O-])c2)NC(=O)[C@H](CC(C)C)N(C)C(=O)[C@H](Cc2cn(C(C)(C)C=C)c3ccccc23)NC1=O`, the ring closure, conversion by HPLC (from C=CC[C@H](NC(=O)[C@H](CC(C)C)NC(=O)[C@H](CC(C)C)NC(=O)[C@H](C)NC(=O)[C@H](Cc1ccc(O)c([N+](=O)[O-])c1)NC(=O)[C@H](CC(C)C)N(C)C(=O)[C@@H](N)Cc1cn(C(C)(C)C=C)c2ccccc12)C(=O)N=[N+]=[N-], 21-membered ring, 0.27 h) was below 50%.

On to `CCCCC(C)CCC(=O)N[C@@H](CCN)C(=O)N[C@H](C(=O)N[C@@H](CCN)C(=O)N[C@H]1CCNC(=O)[C@H]([C@@H](C)O)NC(=O)[C@H](CCN)NC(=O)[C@H](CCN)NC(=O)[C@H](CC(C)C)NC(=O)[C@@H](CC(C)C)NC(=O)[C@H](CCN)NC1=O)[C@@H](C)O` (stereo partly drawn), for which, under “from CCCCC(C)CCC(=O)N[C@@H](CCN)C(=O)N[C@H](C(=O)N[C@@H](CCN)C(=O)N[C@@H](CCN)C(=O)N[C@@H](CCN)C(=O)N[C@H](CC(C)C)C(=O)N[C@@H](CC(C)C)C(=O)N[C@@H](CCN)C(=O)N[C@@H](CCN)C(=O)N[C@H](C(=O)N=[N+]=[N-])[C@@H](C)O)[C@@H](C)O, 23-membered ring, 0.017 h”, the ring closure, conversion by HPLC was determined as 56%.

As for `C=CC[C@@H]1NC(=O)[C@H](CC(C)C)NC(=O)[C@H](CC(C)C)NC(=O)[C@H](C)NC(=O)[C@H](Cc2ccc(O)c([N+](=O)[O-])c2)NC(=O)[C@H](CC(C)C)NC(=O)[C@H](Cc2cn(C(C)(C)C=C)c3ccccc23)NC1=O`, the ring closure, conversion by HPLC (from C=CC[C@H](NC(=O)[C@H](CC(C)C)NC(=O)[C@H](CC(C)C)NC(=O)[C@H](C)NC(=O)[C@H](Cc1ccc(O)c([N+](=O)[O-])c1)NC(=O)[C@H](CC(C)C)NC(=O)[C@@H](N)Cc1cn(C(C)(C)C=C)c2ccccc12)C(=O)N=[N+]=[N-], 21-membered ring) amounted to 0%.

Regarding `CC(C)C[C@@H]1NC(=O)[C@H](CCCN)NC(=O)[C@H](C(C)C)NC(=O)[C@@H]2CCCN2C(=O)[C@@H](Cc2ccccc2)NC(=O)[C@H](CC(C)C)NC(=O)[C@H](CCCN)NC(=O)[C@H](C(C)C)NC(=O)[C@@H]2CCCN2C(=O)[C@@H](Cc2ccccc2)NC1=O` [H-D-Phe-Pro-Val-Orn-Leu-D-Phe-Pro-Val-Orn-Leu-N3], the ring closure, conversion by HPLC (from CC(C)C[C@H](NC(=O)[C@H](CCCN)NC(=O)[C@@H](NC(=O)[C@@H]1CCCN1C(=O)[C@@H](Cc1ccccc1)NC(=O)[C@H](CC(C)C)NC(=O)[C@H](CCCN)NC(=O)[C@@H](NC(=O)[C@@H]1CCCN1C(=O)[C@H](N)Cc1ccccc1)C(C)C)C(C)C)C(=O)N=[N+]=[N-], 30-membered ring, 0.33 h) came out at 92%.

Take `CC(C)C[C@@H]1NC(=O)[C@H](Cc2ccc(O)cc2)NC(=O)[C@@H]2CCCN2C(=O)CNC(=O)[C@H](C)NC1=O` [H-Gly-Pro-Tyr-Leu-Ala-N3]: the ring closure, conversion by HPLC (from CC(C)C[C@H](NC(=O)[C@H](Cc1ccc(O)cc1)NC(=O)[C@@H]1CCCN1C(=O)CN)C(=O)N[C@@H](C)C(=O)N=[N+]=[N-], 15-membered ring, 0.35 h) worked out at 77%.

`C=CC[C@@H]1NC(=O)[C@H](CC(C)C)NC(=O)[C@H](CC(C)C)N(C)C(=O)[C@H](C)NC(=O)[C@H](Cc2ccc(O)c([N+](=O)[O-])c2)NC(=O)[C@H](CC(C)C)NC(=O)[C@H](Cc2cn(C(C)(C)C=C)c3ccccc23)NC1=O`: under “from C=CC[C@H](NC(=O)[C@H](CC(C)C)NC(=O)[C@H](CC(C)C)N(C)C(=O)[C@H](C)NC(=O)[C@H](Cc1ccc(O)c([N+](=O)[O-])c1)NC(=O)[C@H](CC(C)C)NC(=O)[C@@H](N)Cc1cn(C(C)(C)C=C)c2ccccc12)C(=O)N=[N+]=[N-], 21-membered ring, 0.27 h”, the ring closure, conversion by HPLC was below 50%.
